Source: patent US8318207B2, “Encapsulation and controlled release of small molecules for intracellular delivery using thermally responsive nanocapsules” (University of South Carolina, priority 2009, dated 2012)

Tests used:
3T3 fibroblasts [1] = experiment: Collagen production, Sircol assay; format: cell-based; conditions: 0.22 M extracellular trehalose, 40 min incubation (0.5 mg/ml nanocapsules where present)
Description: The immediate cell viability, proliferation, and collagen production of 3T3 cells exposed to 0.22 M extracellular trehalose and 0.5 mg/ml nanocapsules (loaded with trehalose) (As will be shown later in Results and Discussion that the intracellular trehalose is ˜0.3 M under this loading condition) were further studied to test the effectiveness of the nanocapsule based approach for intracellular delivery of trehalose. Immediate cell viability and proliferation of the 3T3 cells after loading with trehalose were studied in the same way as that described for 3T3 cells loaded with empty nanocapsules in section 2.6. The collagen production of cells exposed to 0 M trehalose and 0 mg/ml nanocapsules (control), 0.22 M extracellular trehalose and 0 mg/ml nanocapsules (trehalose without NE), and 0.22 M extracellular trehalose and 0.5 mg/ml extracellular nanocapsules (nanoencapsulated with trehalose) was quantified using the Sircol™ Assay kit (Biocolor, Belfast, N. Ireland). To do this, the cells treated under the three conditions were further cultured for 3 days. […] The absorbance at 540 nm wavelength of the dye was then measured using a BioTek Synergy 2 microplate reader (Winooski, Vt.). Collagen concentration in the collected medium was quantified by comparing its absorbance subtracted with the absorbance of the blank sample with that of the standards.

3T3 fibroblasts [2] = experiment: Nanocapsule assisted intracellular delivery of trehalose; format: cell-based; conditions: extracellular trehalose 0.165 M (nanocapsule 0.375 mg/ml where present), 40 min at 37° C.
Description: The procedures performed for cellular uptake of the trehalose loaded nanocapsules was the same as that described in section 2.6 for the uptake of empty nanocapsules. […] The cells were then detached/lysed in deionized water with the aid of a cell scraper. The cells were further lysed using three cycles of freezing and thawing in liquid nitrogen and 37° C. water bath, respectively. The lysed cell suspension was homogenized for 10 min by sonication using a Branson ultrasonic cleaner (Danbury, Conn.) followed by a brief vortex-mixing. After centrifuging at 10,000 g for 10 min, the supernatant of each sample was divided into two aliquots. One aliquot was used to determine trehalose concentration in the sample using the trehalose assay kit (Megazyme Co. Wicklow, Ireland) as described in the previous section. […] The other aliquot was used to determine cell density in the sample based on its DNA content measured using a method described in Dunn et. al, Long-term in vitro function of adult hepatocytes in a collagen sandwich configuration, Biotechnol Prog 1991 May-Jun;7(3):237-245. […] With the trehalose concentration and cell density in the sample being measured, the total amount of intracellular trehalose and the total number of cells (and thus the total osmotically active cell volume) can be calculated. Therefore, the intracellular trehalose concentration can be determined.

[3] = Nanoencapsulation and controlled release of trehalose (dialysis, trehalose assay kit); format: physicochemical
Description: The resultant freeze-dried mixture of extra-capsular trehalose and trehalose-loaded nanocapsules was either used immediately or stored at −20° C. for future use.
To determine whether trehalose can be withheld in the nanocapsule at 37° C. for controlled release, the freeze-dried mixture of trehalose and trehalose-loaded nanocapsules was preheated to 37° C. and dissolved in 2 ml warm water at 37° C. in a 15 ml centrifuge tube. The final overall trehalose (i.e., trehalose both inside and outside the nanocapsules) concentration in the solution was 15% (w/v) and the corresponding nanocapsule (excluding the encapsulated trehalose) concentration was 10 mg/ml. Therefore, the total amount of trehalose and nanocapsules (excluding the encapsulated trehalose) in the 2 ml solution was 0.3 and 0.02 g, respectively. The solution in the centrifuge tube was then transferred either after cooling at 22° C. (i.e., cold shocking) for 15 min or immediately into a Spectra/Por dialysis bag (MWCO, 50 kDa) and placed in a beaker containing 1 L of deionized water kept warm at 37° C. with constant stirring using a hotplate/stirrer for 5 hr. It is expected that the 15 min cooling at 22° C. followed by heating at 37° C. in the beaker should result in a quick release of nanoencapsulated trehalose as a result of the more than 15 times of volume expansion and contraction in response to the temperature variation. Control experiments were performed similarly except that 2 ml of 15% (w/v) pure trehalose solution (i.e., in the absence of nanocapsules) was used in the dialysis tube. […] Trehalose concentration in the 0.5 ml samples was determined using a trehalose assay kit (Megazyme Co., Wicklow, Ireland) by following the manufacturer's instructions. […] The absorbance at 340 nm of NADPH was then measured using a Shimazu (Columbia, Md.) UV-2101PC spectrophotometer to determine the amount of trehalose in the original sample.

NIH 3T3 fibroblasts = experiment: Long-term (3-day) cell proliferation; format: cell-based; conditions: 0.22 M extracellular trehalose, 40 min incubation (0.5 mg/ml nanocapsules where present)
Description: For long-term cell proliferation studies, cells were seeded in 33 mm Petri dishes at a relatively low density of 1×10^5 cells/dish in 1 ml medium. At 24 h, the cells were exposed to nanocapsules in the same way as that described above for immediate cell viability studies. After cold shock, the cells were further cultured for 3 days to monitor their proliferation (long-term toxicity). This was done by taking at least 10 representative images of the samples every day including the day (taken as day 0) when the cells were exposed to nanocapsules. The total number of cells in each image were counted automatically using NIH ImageJ. […] The collagen production of cells exposed to 0 M trehalose and 0 mg/ml nanocapsules (control), 0.22 M extracellular trehalose and 0 mg/ml nanocapsules (trehalose without NE), and 0.22 M extracellular trehalose and 0.5 mg/ml extracellular nanocapsules (nanoencapsulated with trehalose) was quantified using the Sircol™ Assay kit (Biocolor, Belfast, N. Ireland). […] The absorbance at 540 nm wavelength of the dye was then measured using a BioTek Synergy 2 microplate reader (Winooski, Vt.). Collagen concentration in the collected medium was quantified by comparing its absorbance subtracted with the absorbance of the blank sample with that of the standards.

- 3 day collagen production vs control (3T3 fibroblasts [1]): No significant differences
- time for trehalose release from the dialysis bag to reach equilibrium ([3]; 2 ml of 15% (w/v) into 1 L deionized water at 37° C.): approximately 2 hours
- trehalose released from the dialysis tube ([3]; after one hour, 37° C.): more than 80%
- trehalose concentration in the 1 L solution outside the dialysis tube ([3]; at 2 hr, 37° C., no cold shock): 0.3 g/L
SMILES: OC[C@H]1O[C@H](O[C@H]2O[C@H](CO)[C@@H](O)[C@H](O)[C@H]2O)[C@H](O)[C@@H](O)[C@@H]1O [Trehalose w/o NE, α,α-trehalose]
- intracellular trehalose concentration (3T3 fibroblasts [2]): 0.02 M
- 3 day cell proliferation vs control (NIH 3T3 fibroblasts): No significant differences
